Test results: PMC10333884, “Large‐scale phosphomimetic screening identifies phospho‐modulated motif‐based protein interactions” (Molecular Systems Biology, 2023)
Residues, ends and D or L forms follow the SMILES beside them.

Legend:
[1] = target: T1, SNX27 PDZ (Homo sapiens, UniProt Q96L92); assay: Phosphomimetic ProP-PD selection, SNX27 PDZ; settings: phosphomimetic enrichment score of the wild-type/phosphomimetic (E) pair at the phosphosite, PM_HD2 phage selection; positive = phosphomimetic enhances binding; P-value in brackets not taken
T1 construct: SNX27_PDZ__Q96L92_40_141; made in house; host or cells: Escherichia coli BL21-Gold(DE3)
Method: (§1) Selections using the PM_HD2 phage library were performed as described previously with minor modification to the original protocol. The corresponding tag protein (either GST or MBP) was first used during negative selections. Selections were run for 4 days. • Bait and tag proteins (10–15 μg in 100 μl PBS) were immobilised in 96‐well MaxiSorb plate (NUNC) o.n. at 4°C. • Escherichia coli OmniMax bacteria were grown in 2YT medium supplemented with tetracycline (100 μg/ml) at 37°C and 200 rpm. • Plates with immobilised bait/tag proteins were blocked with 0.5% BSA in PBS for 1 h at 4°C. • Phage library (10 μl/well) was prepared by diluting 10× with PBS and adding one‐fourth of the volume of PEG/NaCl. For phage precipitation, prepared library was incubated for 10 min on ice followed by centrifugation for 10 min at 10,000 × g at 4°C. […]
(§2) Based on the results from phage pool ELISAs, samples from selection Day 3 and 4 were selected for NGS, as described previously (Benz et al, [2022]). • Peptide coding regions were amplified and dual‐barcoded by PCR. […] From the columns, samples were eluted with 30 μl TE (10 mM Tris–HCl, 1 mM EDTA. pH 7.5) buffer and quantified with Quant‐iT PicoGreen dsDNA Assay Kit. • Samples were sequenced on MiSeq (MSC 2.5.0.5/RTA 1.18.54) with a 151 nt (Read1) setup using “Version3” chemistry. […]

[2] = target: T1, SNX27 PDZ; assay: FP displacement assay, SNX27 PDZ (MBP-tagged); type: binding; settings: for Kd: MBP-tagged domain, probe FITC-SYT16 5 nM, 50 mM sodium phosphate pH 7.4, room temperature, at least three technical replicates, read-out: KD values ± SEM
Method: (§3) For FP, ITC and crystallisation, the tag was removed with the appropriate protease either on beads (0.1 mg/ml thrombin (Cytiva) in PBS, 1 mM dithiothreitol (DTT)) or by dialysis in cleavage buffer (Human Rhinovirus (HRV) 3C protease: 50 mM Tris–HCl pH 7.4, 150 mM NaCl, 1 mM β‐mercaptoethanol), both procedures were overnight. In case of HRV protease cleavage, the tag was separated from the target protein domain by reverse ion metal affinity chromatography using Ni^2+ beads for purification, whereas thrombin was removed using a benzamidine column (Cytiva). Affinity measurements for SNX27 PDZ were performed on the MBP‐tagged construct, as well as PIN1 WW domain on the GST‐tagged construct. For FP and ITC, proteins were dialysed in 50 mM sodium phosphate buffer pH 7.4, 1 mM DTT. For crystallisation of the NTD of clathrin, the protein was further purified by a S200 Sepharose column (Cytiva) using 20 mM Tris–HCl pH 7.4, 150 mM NaCl and 1 mM DTT.
(§4) FP experiments were performed as described previously (Kliche et al, [2021]). Shortly, in order to monitor the binding event, FITC‐labelled peptides were used (excitation 495 nm, emission: 535 nm) and the FP signal was recorded in mP on a SpectraMax iD5 Multi‐Mode Microplate Reader (Molecular Devices) by measuring the emitted light in two angels. The measurements were performed at room temperature and prepared in nonbinding black half area 96‐well microplates (Corning®; 50 μl/well). For measuring direct binding, that is saturation curves, a 1:1 dilution series of protein domain (25 μl/well) was generated in 50 mM sodium phosphate buffer pH 7.4 and the measurement performed with 5 nM FITC‐labelled peptide (25 μl/well). The buffer‐corrected values were subsequently plotted with PRISM and fitted to the quadratic equation (Gianni et al, [2005]).
(§5) The 1:1 dilution series in this experiment was performed with the unlabelled peptide in 50 mM sodium phosphate buffer pH 7.4, so that each well‐contained unlabelled peptide (25 μl) at a certain concentration and pre‐formed complex (25 μl). The KD values of this indirectly monitored binding event were calculated as described previously (Nikolovska‐Coleska et al, [2004]). All measurements were at least in technical triplicates as well as biological duplicates when indicated. An amplitude shift between repeat measurements in the displacement experiments was occasionally observed due to variations in the protein preparations. If that was the case, the “active” protein concentration was back‐calculated according to the quadratic equation from the saturation curves performed in parallel. By comparing the active protein concentrations in the complex between different protein preparations, the amplitude was normalised.

[3] = target: T2, RANBP2 RanBD4 (Homo sapiens, UniProt P49792); assay: Phosphomimetic ProP-PD selection, RANBP2 RanBD4; settings: phosphomimetic enrichment score of the wild-type/phosphomimetic (E) pair at the phosphosite, PM_HD2 phage selection; positive = phosphomimetic enhances binding; P-value in brackets not taken
T2 construct: GST (cleaved yes); made in house; host or cells: Escherichia coli BL21-Gold(DE3)
T2 sequence (P49792 2924-3050): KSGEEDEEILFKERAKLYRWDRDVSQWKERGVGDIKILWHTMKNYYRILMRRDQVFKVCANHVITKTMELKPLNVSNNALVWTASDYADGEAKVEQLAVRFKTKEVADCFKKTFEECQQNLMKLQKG
Method: as §1, §2

[4] = target: T2, RANBP2 RanBD4; assay: FP displacement assay, RANBP2 RanBD4; type: binding; settings: probe FITC-C7orf25 5 nM, 50 mM sodium phosphate pH 7.4, room temperature, at least three technical replicates, read-out: KD values ± SEM
Method: as §4, §5

[5] = tested on: PIN1 WW domain; assay: FP displacement assay, PIN1 WW domain (GST-tagged); type: binding, human; settings: probe FITC-SMAD3, technical triplicates
Method: as §3
FP experiments were performed as described previously (Kliche et al, [2021]). Shortly, in order to monitor the binding event, FITC‐labelled peptides were used (excitation 495 nm, emission: 535 nm) and the FP signal was recorded in mP on a SpectraMax iD5 Multi‐Mode Microplate Reader (Molecular Devices) by measuring the emitted light in two angels. […]

[6] = target: T3, AP2 μ2 (Homo sapiens, UniProt Q96CW1); assay: Phosphomimetic ProP-PD selection, AP2 μ2; settings: phosphomimetic enrichment score of the wild-type/phosphomimetic (E) pair at the phosphosite, PM_HD2 phage selection, all overlapping peptides and replicates; positive = phosphomimetic enhances binding; P-value in brackets not taken
T3 construct: AP2_Mu__Q96CW1_160_435; GST (cleaved yes); made in house; host or cells: Escherichia coli BL21-Gold(DE3)
T3 sequence (Q96CW1 160-435): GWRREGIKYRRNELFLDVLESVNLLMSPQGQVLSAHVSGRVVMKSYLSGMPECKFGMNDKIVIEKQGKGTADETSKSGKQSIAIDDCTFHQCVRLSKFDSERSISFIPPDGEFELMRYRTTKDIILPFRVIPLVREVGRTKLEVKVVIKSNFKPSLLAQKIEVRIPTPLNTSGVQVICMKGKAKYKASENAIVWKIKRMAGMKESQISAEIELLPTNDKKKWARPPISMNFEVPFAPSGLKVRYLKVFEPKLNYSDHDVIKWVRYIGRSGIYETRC
Method: as §1, §2

[7] = target: T3, AP2 μ2; assay: FP displacement assay, AP2 μ2; type: binding; settings: probe FITC-ATG9A 5 nM, 50 mM sodium phosphate pH 7.4, room temperature, at least three technical replicates, read-out: KD values ± SEM
Method: as §4, §5

Row | PES [1] | Kd [2] | PES [6] | Kd [7] | Compound | further results
1 | 6 (0.00063) | 23 ± 4 µM |  |  | CSCC[C@H](NC(=O)CNC(C)=O)C(=O)N[C@H](C(=O)N[C@@H](CO)C(=O)N[C@@H](CCC(=O)O)C(=O)N[C@H](C(=O)N[C@@H](CO)C(=O)N[C@@H](Cc1ccccc1)C(=O)N[C@@H](CC(N)=O)C(=O)NCC(=O)NCC(=O)N[C@@H](Cc1ccc(O)cc1)C(N)=O)[C@@H](C)O)C(C)C [DAXX606–616 E] (Ac-GMVSETSFNGGY-NH2) | IC50 ([2]; Fig 4B, SNX27 PDZ, technical triplicates, read-out: IC50 values of displacement curves, with SEM): 117 ± 25 µM
2 |  |  |  |  | CC(=O)N[C@@H](CCCCN)C(=O)N[C@@H](Cc1ccc(O)cc1)C(=O)N[C@@H](CO)C(=O)N[C@@H](CC(=O)O)C(=O)N[C@@H](CC(=O)O)C(=O)N[C@H](C(=O)N1CCC[C@H]1C(=O)N[C@@H](CC(C)C)C(=O)N1CCC[C@H]1C(=O)N[C@@H](CCC(=O)O)C(=O)N1CCC[C@H]1C(=O)N[C@@H](CO)C(=O)N[C@@H](Cc1ccc(O)cc1)C(=O)N[C@@H](CCCCN)C(=O)N[C@@H](Cc1ccc(O)cc1)C(=O)N[C@@H](CC(N)=O)C(N)=O)[C@@H](C)O [DHX38_260–275 E] (Ac-KYSDDTPLPEPSYKYN-NH2) | PES [3]: 3 (0.04); Kd [4]: 470 ± 35 µM
3 |  |  |  |  | H3COC-MSETQSS(pS/E)PTKGVLMY-NH2 [PIAS2_493–507 wt, wild-type PIAS2 493-507 peptide] | binding in FP displacement experiment [5]: none of the peptides tested
4 | −6 (0.00063) | 680 ± 40 µM |  |  | CC(=O)N[C@@H](CC(N)=O)C(=O)N[C@@H](CC(C)C)C(=O)N[C@@H](CC(C)C)C(=O)N[C@@H](CC(C)C)C(=O)N[C@@H](CCC(=O)O)C(=O)N[C@@H](CCCNC(=N)N)C(=O)N[C@@H](CC(=O)O)C(=O)N[C@H](C(=O)N[C@@H](CCC(=O)O)C(=O)N[C@@H](Cc1ccccc1)C(=O)N[C@H](C(=O)N[C@H](C(=O)N[C@@H](C)C(=O)N1CCC[C@H]1C(=O)N[C@@H](CC(=O)O)C(=O)N[C@@H](Cc1ccc(O)cc1)C(N)=O)C(C)C)[C@@H](C)O)[C@@H](C)O [CDC25C30–44 E] (Ac-NLLLERDTEFTVAPDY-NH2) | 
5 |  |  | 1.2 (0.095) | 0.49 ± 0.08 µM | CC(=O)N[C@@H](Cc1ccccc1)C(=O)N1CCC[C@H]1C(=O)N[C@@H](CO)C(=O)N[C@@H](CCC(=O)O)C(=O)N[C@@H](Cc1ccc(O)cc1)C(=O)N[C@H](C(=O)N[C@@H](CCCCN)C(=O)N[C@@H](CC(C)C)C(=O)N[C@@H](CC(C)C)C(=O)N[C@@H](CCC(=O)O)C(=O)N[C@@H](CCC(=O)O)C(=O)N[C@@H](CC(N)=O)C(=O)N[C@@H](CCC(=O)O)C(=O)N[C@H](C(=O)N[C@@H](CCC(=O)O)C(=O)N[C@@H](C)C(N)=O)[C@@H](C)O)[C@@H](C)O [BAIAPL1_392–407 E] (Ac-FPSEYTKLLEENETEA-NH2) | 
6 |  |  | 1 (0.15) | 2.05 ± 0.09 µM | CC[C@H](C)[C@H](NC(=O)[C@@H](NC(=O)[C@@H]1CCCN1C(=O)[C@H](CCC(=O)O)NC(=O)[C@H](CO)NC(=O)[C@H](C)NC(=O)[C@@H]1CCCN1C(=O)[C@H](CCSC)NC(=O)[C@@H]1CCCN1C(=O)[C@H](CCC(N)=O)NC(=O)[C@H](Cc1ccc(O)cc1)NC(=O)[C@@H]1CCCN1C(=O)[C@@H](NC(=O)[C@@H](NC(=O)[C@H](CCSC)NC(C)=O)[C@@H](C)O)[C@@H](C)CC)C(C)C)C(=O)N[C@@H](CS)C(N)=O [PCBP1_179–194 E] (Ac-MTIPYQPMPASEPVIC-NH2) | 
